Drawing on a melting point compilation (Tetko et al.; mined from patent text by program, amines drawn as free bases though some values may be those of a salt), this text covers melting point for 90 compounds.

Structures are written as SMILES.

On to `O=C1NOc2cccc3nc4c(c(c23)C1Cc1ccccc1)CCCC4` (stereo not given), for which the melting point (in general, the temperature of the solid-liquid transition) fell in the range of 166 to 168 °C.

Regarding `COc1ccc(SSc2ccc(OC)cc2C(N)=O)c(C(N)=O)c1`, the melting point fell in the range of 188 to 189 °C.

For the compound `CCCCc1c(-c2ccncc2)[nH]c(-c2ccncc2)c1C(C)=O`, the melting point lay in the range of 93 to 95 °C.

The compound `CS(=O)(=O)c1cc(CCC(=O)O)nc(-c2nc(=O)c3ccc(Cl)cc3s2)c1` registered a melting point of 229 °C.

For the compound `N#Cc1cnc2cc3ccccc3cc2c1Cl`, the melting point fell in the range of 253 to 255 °C.

For `Nc1ccc(Oc2cc3ccccc3cc2Oc2ccc(N)c(O)c2)cc1O`, the melting point was 196 to 197 °C.

With `CC(C)CCS(=O)(=O)NC(=O)CCc1cc(C2CC2)nn1Cc1ccc(C(F)(F)F)cc1Cl`, the melting point lay within 160 to 162 °C.

For the compound `CCCCCCCCCCCC(=O)c1ccc(/C=C/C(=O)O)o1`, the melting point was in the range of 122 to 127 °C.

On to `Nn1c(=O)c(-c2cccs2)nc2ccccc21`, for which the melting point was 164 °C.

`CCCc1nc(C)nc(O)c1Cc1ccc([N+](=O)[O-])cc1`: the melting point was 200 °C.

`CC(O)c1ccc(CCNS(=O)(=O)c2ccccc2)cc1` (stereo not given) registered a melting point of 98 to 100 °C.

Consider `CCN(CC)CCOc1nc2ccccc2n(-c2ccc(Cl)cc2)c1=O`, for which the melting point was 165 to 167 °C.

Turning to `Nc1ccc(C(=O)N2CCC[C@@H]3CCCC[C@H]32)cc1[N+](=O)[O-]` (relative stereo), the melting point lay in the range of 212 to 215 °C.

Consider `CCOC(=O)CC1(O)c2ccccc2C=Cc2ccccc21`, for which the melting point was 93 to 99 °C.

Compound `CC(=O)OC1CCC(c2ccccc2)CC1` (stereo not given) displayed a melting point of 43 to 45 °C.

Consider `CSc1c(C=O)c(=O)n(C)c(=O)n1C`, for which the melting point stood at 104 °C.

`CCCCCCCCCCCCCCCCCCN(C)[Si](C)(C)C` yielded a melting point of 35 to 40 °C.

Compound `CS(=O)c1ccc(-c2cc(C#N)nn2-c2ccc(F)cc2)cc1` (stereo not given) came in with a melting point of 104 to 105 °C.

On to `COC(=O)c1cccc2c1cc1n2CCCC1`, for which the melting point was 102 to 103 °C.

Regarding `CN(C)c1cccc2c(S(=O)(=O)Nc3ncc(Br)nc3Br)cccc12`, the melting point amounted to 178 °C.

In the case of `COc1ccc2cc3c(c(-c4ccc(OC(F)(F)F)cc4)c2c1)C(=O)NC3=O`, the melting point is 282 to 284 °C.

With `N#CCC1COc2ccccc2C1` (stereo not given), the melting point was 54 to 55.5 °C.

In turn, `O=c1[nH]c(=Cc2cccs2)c(=O)[nH]c1=Cc1ccc2ccccc2n1` came in with a melting point of 288 to 289 °C.

`CN(C)C(=O)C(Cc1ccccc1)NC(=O)Nc1n[nH]c(=S)s1` (stereo not given) displayed a melting point of 196 to 197 °C.

The compound `O=C1CC(Cc2ccncc2)(Cc2ccncc2)C(=O)N1C12CC3CC(CC(C3)C1)C2` came in with a melting point of 137 to 138 °C.

For `O=c1ncc(Cl)cn1COCc1cccs1`, the melting point is 132 °C.

Compound `CC1Cc2cccc3c4oc(=O)c(Br)c(O)c4c(=O)n1c23` (stereo not given) had a melting point of 221 to 222 °C.

The compound `COC(=O)C(C(C)C)S(=O)(=O)Nc1nc(OC)cc(OC)n1` (stereo not given) showed a melting point of 94 to 95 °C.

Regarding `CC(=O)NC[C@H]1CN(c2ccc(C3=CN(C(=O)CO)CCC3)c(F)c2)C(=O)O1`, the melting point fell in the range of 171 to 173 °C.

On to `CN(CC(=O)O)C[C@H]1O[C@H](c2ccccc2Cl)c2cc(Cl)ccc2N(Cc2ccccc2)C1=O` (relative stereo), for which the melting point was 195 to 197 °C.

Compound `CCc1cnc(-c2ccc(N=C=S)cc2)nc1` returned a melting point of 114 °C.

With `Cn1ncnc1COc1nn2c(-c3ccc(F)cc3)nncc2c1-c1ccccc1F`, the melting point stood at 191 °C.

The compound `COc1ccc(O)c(Cc2cccc(C(F)(F)F)c2)c1` showed a melting point of 188 to 190 °C.

Consider `CCCc1c(C#N)ccc(NC(=NC#N)Nc2cccc(Cl)c2Cl)c1O`, for which the melting point lay in the range of 143 to 147 °C.

`CCc1c(Br)c(C#N)nn1C`: the melting point was in the range of 72 to 74 °C.

Take `COc1ccc(C2C3=C(COC3=O)Nc3ccc4ncsc4c32)cc1O` (stereo not given): the melting point was 327 to 329 °C.

On to `O=C(O)C1CCCc2c(-c3ccc(C(F)(F)F)cc3)noc2C1` (stereo not given), for which the melting point lay in the range of 222 to 225 °C.

For `O=S(=O)(CCCCl)Nc1ccc(OCc2ccc3ccccc3n2)cc1`, the melting point was determined as 117 °C.

`COc1ccc(Br)cc1CC1CCCn2c1nc(-c1ccncn1)cc2=O` (racemic) registered a melting point of 178 to 180 °C.

With `CCCCCCCNC(=O)Nc1ccc(NC(=O)NCCCC)cc1C(=O)NC1CCN(C(c2ccccc2)c2ccccc2)CC1`, the melting point was in the range of 209 to 211 °C.

For `CCOC(=O)C1=C(C)NC(C)=C(C(=O)OC)C1c1cccc(C#N)c1` (stereo not given), the melting point amounted to 150 °C.

Regarding `CCn1nc(-c2ccccc2)c(C(C)=O)c(Nc2cnccn2)c1=O`, the melting point was in the range of 229 to 230 °C.

The compound `O=C(O)C(Cc1ccccc1)Nc1cc(-c2ccc(Cc3ccccc3)cc2)ncn1` (stereo not given) displayed a melting point of 116 to 118 °C.

In turn, `CCn1c(O)cc(C)c(C#N)c1=O` gave a melting point of 230 to 237 °C.

In turn, `COc1ccc(CC(=O)O)c(C(=O)c2ccccc2)c1` yielded a melting point of 158 to 159 °C.

As to `COc1ccc(C(O)(c2ccc(C(C)C)cc2)C(C)C)c(OC)c1` (stereo not given), the melting point fell in the range of 80 to 81 °C.

The compound `CC(C)(C)c1cc2c(c(-c3nc4ccc(S(=O)(=O)C(F)(F)F)cc4c(=O)[nH]3)c1O)CCO2` yielded a melting point of 235 to 237 °C.

`O=C(NCc1ccccc1N1CCNCC1)c1cnc2c(-c3cccc(Cl)c3)cnn2c1` returned a melting point of 185 to 188 °C.

`CN1C(=O)n2c(nc3ccccc32)NC12CCCC2` registered a melting point of 180 to 182 °C.

Turning to `C#Cc1cccc(N2C(=O)c3ccc([N+](=O)[O-])cc3C2=O)c1`, the melting point fell in the range of 257 to 259 °C.

`COc1ccc(C(=O)c2ccccc2)c(O)c1Cc1cc(C)cc(-n2nc3ccccc3n2)c1O`: the melting point fell in the range of 206 to 209 °C.

`O=C1CN2Cc3cc(OCCCC(=O)N(CCO)CC4CCCCC4)ccc3N=C2N1` returned a melting point of 223 to 224 °C.

`CCCCN(CCCC)c1nc(Nc2ccc3c(c2)C(=O)c2ccccc2C3=O)nc(N(CCCC)CCCC)n1`: the melting point was 140 to 145 °C.

`O=C1CN=C(c2ccccc2F)c2ccccc2N1` showed a melting point of 181 to 182 °C.

`COP(=S)(OC)Oc1nc(F)c(Cl)cc1Cl`: the melting point is < 20 °C.

In turn, `Oc1c2c(nn1-c1ccccn1)CCc1ccccc1-2` registered a melting point of 145 to 146 °C.

Turning to `Cc1nc(-c2cccc(C(F)(F)F)c2)c2nc(-c3ccccc3)cc-2[nH]1`, the melting point is 206 to 208 °C.

The compound `CCOC(=O)Oc1ccc(C(=O)OCCN2CCN(CCN3CCOCC3)CC2)cc1` showed a melting point of 85 to 87 °C.

As for `O=c1[nH]c(N2CCN(CCCCN3CCCCC3)CC2)cc2c(Cl)cccc12`, the melting point lay within 172 to 173 °C.

Take `CNc1nc2c(OCc3ccccc3)cccc2n1C`: the melting point was 213 °C.

In the case of `C=Cc1cnc2c(NC(=O)c3c(Cl)cccc3Cl)cccc2c1Cn1ccnc1`, the melting point is 189 to 191 °C.

Take `CN1C2CCC1CC(c1n[nH]c3cc(F)ccc13)C2` (stereo not given): the melting point fell in the range of 235 to 236 °C.

Take `Cc1ccc(S(=O)(=O)NCCO)c(C)c1`: the melting point was in the range of 70 to 72 °C.

In turn, `CS(=O)(=O)Nc1cc2occ(CO)c(=O)c2cc1Oc1ccccc1` registered a melting point of 165 to 166 °C.

`CCc1c(Cl)nc(Cl)nc1N(C=O)c1cc(C)cc(C)c1` yielded a melting point of 124 to 125 °C.

`O=C(c1ccccc1)N(c1ccccc1)c1ccc(OCCN2CCOCC2)cc1` came in with a melting point of 81.5 to 84.5 °C.

As to `COc1ccc(-c2nc(N3CCOCC3)c3sc(NS(=O)(=O)c4cccc(/C=C/C(=O)NO)c4)cc3n2)cn1`, the melting point was > 300 °C.

`N#Cc1ccc2c(c1)Sc1ccc(Cl)cc1C=C2` registered a melting point of 207 to 210 °C.

`O=C1c2ccc(OCCO)cc2C(=O)c2cc(-c3nnn[nH]3)ccc21` gave a melting point of 260 to 262 °C.

Turning to `O=C(O)c1cccc(C(=O)c2ccc(Cl)cc2)c1`, the melting point turned out to be 228 °C.

With `CC(=O)CCS(=O)(=O)c1ccc(C=C(C)c2ccc3c(c2)C(C)(C)CCC3(C)C)cc1`, the melting point was 135 to 136 °C.

`CCOC(=N)c1ccc(-c2cc3ncn([C@H](C)[C@](O)(Cn4cncn4)c4ccc(F)cc4F)c(=O)c3s2)cc1` returned a melting point of 158 to 161 °C.

As for `COC(=O)COc1ccc(OC/C=C(/c2ccc(Cl)cc2)c2ccc(I)cc2)cc1C`, the melting point is 89 to 92 °C.

The compound `COC1=CC(C=C(C#N)C(=O)O)CC(OC)=C1OC` (stereo not given) had a melting point of 102 to 105 °C.

On to `CCCCCCCCCCCCCCCC(=O)C1=C(O)COC1=O`, for which the melting point lay within 81 to 83 °C.

Compound `O=c1oc2c(O)cccc2c(OCCN2CCOCC2)c1-c1ccccc1` returned a melting point of 190 to 191 °C.

Compound `CCCCOc1ncc(C(C)O)cc1-c1nc2c(CC)n(C3CN(CC)C3)nc2c(=O)[nH]1` (stereo not given) displayed a melting point of 117 to 119 °C.

As to `CCc1c(C(=O)C(=O)NC2=CC(=O)OC2)c2ccccc2n1Cc1ccc(Cl)cc1`, the melting point was in the range of 192 to 195 °C.

Compound `NC(=O)N(O)CCNC(=O)c1cccn1Cc1ccc(Cl)cc1` registered a melting point of 158 to 160 °C.

Compound `NC(=O)c1cc2cc(F)ccc2nc1N` showed a melting point of 232 to 236 °C.

The compound `Cc1cc(C2=CCN=C(CCCC(O)c3ccc(F)cc3)C2)on1` (stereo not given) had a melting point of 116 to 119 °C.

Consider `O=C(O)Cc1cccc(OCCCc2cn(-c3ccc(C(F)(F)F)cn3)nc2-c2ccccc2)c1`, for which the melting point lay in the range of 132 to 133 °C.

Compound `C=Cc1ccc(CN2CCNCCNCC2)cc1` registered a melting point of 56 to 59 °C.

The compound `CC1(C)CN=C(c2cc3cccc(NS(=O)(=O)c4cccs4)c3[nH]2)S1` came in with a melting point of 176 to 177 °C.

Compound `COC(=O)c1cccc2cc(-c3ccccc3)oc12` yielded a melting point of 45 to 47 °C.

Take `CCC(C)(CC(=O)Nc1cccc(OCc2ccc3ccc(F)cc3n2)c1)C(=O)O` (stereo not given): the melting point fell in the range of 179 to 180 °C.

With `N#CNc1cc(F)ccc1N1CCOCC1`, the melting point lay in the range of 168 to 170 °C.

The compound `Cc1cc(-n2nnc(-c3ccccc3)n2)sc1C(=O)NCc1ccccc1` registered a melting point of 155 to 158 °C.

`CCCN1C(=O)N2CC(CC)N=C2c2c1ncn2C` (stereo not given): the melting point was in the range of 124 to 126 °C.

`N#CSc1nc(I)ncc1I`: the melting point lay within 183 to 185 °C.
